Patent US6117841A, “Substituted peptidylamine calcium channel blockers” (Warner-Lambert Company, priority 1999, dated 2000)
pIC50: −log10 of the molar value.

Legend:
DBA/2 mice = test: In vivo anticonvulsant activity, sound-induced tonic seizures in DBA/2 mice; conditions: 30 mg/kg intravenous, tested 15 or 45 minutes after injection
Description: A compound of the present invention was dissolved in water using 10% (weight/volume) Emulphor (GAF Corp., Wayne, N.J.) surfactant. Substances were administered by intravenous injection into the retro-orbital venous sinus. All testing was performed 15 minutes or 45 minutes after drug injection. All the male mice, 3-4 weeks old were obtained from Jackson Laboratories Bar Harbour, Me. Immediately before anticonvulsant testing, mice were placed upon a wire mesh, 4 inches square suspended from a steel rod. The square was slowly inverted through 180 degrees and mice observed for 30 seconds. Any mouse falling from the wire mesh was scored as ataxia.
Mice were placed into an enclosed acrylic plastic chamber (21 cm height, approximately 30 cm diameter) with a high-frequency speaker (4 cm diameter) in the center of the top lid. An audio signal generator (Protek model B-810) was used to produce a continuous sinusoidal tone that was swept linearly in frequency between 8 kHz and 16 kHz once each 10 msec. The average sound pressure level (SPL) during stimulation was approximately 100 dB at the floor of the chamber. Mice were placed within the chamber and allowed to acclimatize for 1 minute. DBA/2 mice in the vehicle-treated group responded to the sound stimulus (applied until tonic extension occurred, or for a maximum of 60 sec) with a characteristic seizure sequence consisting of wild running followed by clonic seizures, and later by tonic extension, and finally by respiratory arrest and death in 80% or more of the mice. In vehicle-treated mice, the entire sequence of seizures to respiratory arrest lasts approximately 15-20 seconds.
The incidence of all the seizure phases in the drug-treated and vehicle-treated mice was recorded, and the occurrence of tonic seizures were used for calculatine anticonvulsant ED50 values by probit analysis. Mice were used only once for testing at each time and dose point.

N-type Ca^2+ Channel = target: T1, N-type Ca^2+ Channel (Homo sapiens, UniProt Q00975); test: Measurement of N-type Ca2+ channel blocking potencies in IMR-32 cells using the fluorescent Ca2+ indicator Indo-1; assay type: cell-based; conditions: IMR-32 cells, K+ depolarization, 5 μM nitrendipine to block L-type channels; read-out: IMR 32 IC50
T1 construct: host or cells: IMR-32 cells differentiated with dibutyryl cAMP and bromodeoxyuridine
In short: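 IMR-32 cells were differentiated 7–13 days (1 mM dibutyryl cAMP, 2.5 µM BrdU) and Indo-1-loaded. They were preincubated 10 min at 30 °C with compound and 5 µM nitrendipine in HEPES/Tris pH 7.4 HBSS with 0.5% BSA, then KCl/CaCl2-depolarized. The peak-minus-basal 400/490 nm emission ratio gave IC50 by four-parameter logistic fit.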

T1 sequence (Q00975 whole entry): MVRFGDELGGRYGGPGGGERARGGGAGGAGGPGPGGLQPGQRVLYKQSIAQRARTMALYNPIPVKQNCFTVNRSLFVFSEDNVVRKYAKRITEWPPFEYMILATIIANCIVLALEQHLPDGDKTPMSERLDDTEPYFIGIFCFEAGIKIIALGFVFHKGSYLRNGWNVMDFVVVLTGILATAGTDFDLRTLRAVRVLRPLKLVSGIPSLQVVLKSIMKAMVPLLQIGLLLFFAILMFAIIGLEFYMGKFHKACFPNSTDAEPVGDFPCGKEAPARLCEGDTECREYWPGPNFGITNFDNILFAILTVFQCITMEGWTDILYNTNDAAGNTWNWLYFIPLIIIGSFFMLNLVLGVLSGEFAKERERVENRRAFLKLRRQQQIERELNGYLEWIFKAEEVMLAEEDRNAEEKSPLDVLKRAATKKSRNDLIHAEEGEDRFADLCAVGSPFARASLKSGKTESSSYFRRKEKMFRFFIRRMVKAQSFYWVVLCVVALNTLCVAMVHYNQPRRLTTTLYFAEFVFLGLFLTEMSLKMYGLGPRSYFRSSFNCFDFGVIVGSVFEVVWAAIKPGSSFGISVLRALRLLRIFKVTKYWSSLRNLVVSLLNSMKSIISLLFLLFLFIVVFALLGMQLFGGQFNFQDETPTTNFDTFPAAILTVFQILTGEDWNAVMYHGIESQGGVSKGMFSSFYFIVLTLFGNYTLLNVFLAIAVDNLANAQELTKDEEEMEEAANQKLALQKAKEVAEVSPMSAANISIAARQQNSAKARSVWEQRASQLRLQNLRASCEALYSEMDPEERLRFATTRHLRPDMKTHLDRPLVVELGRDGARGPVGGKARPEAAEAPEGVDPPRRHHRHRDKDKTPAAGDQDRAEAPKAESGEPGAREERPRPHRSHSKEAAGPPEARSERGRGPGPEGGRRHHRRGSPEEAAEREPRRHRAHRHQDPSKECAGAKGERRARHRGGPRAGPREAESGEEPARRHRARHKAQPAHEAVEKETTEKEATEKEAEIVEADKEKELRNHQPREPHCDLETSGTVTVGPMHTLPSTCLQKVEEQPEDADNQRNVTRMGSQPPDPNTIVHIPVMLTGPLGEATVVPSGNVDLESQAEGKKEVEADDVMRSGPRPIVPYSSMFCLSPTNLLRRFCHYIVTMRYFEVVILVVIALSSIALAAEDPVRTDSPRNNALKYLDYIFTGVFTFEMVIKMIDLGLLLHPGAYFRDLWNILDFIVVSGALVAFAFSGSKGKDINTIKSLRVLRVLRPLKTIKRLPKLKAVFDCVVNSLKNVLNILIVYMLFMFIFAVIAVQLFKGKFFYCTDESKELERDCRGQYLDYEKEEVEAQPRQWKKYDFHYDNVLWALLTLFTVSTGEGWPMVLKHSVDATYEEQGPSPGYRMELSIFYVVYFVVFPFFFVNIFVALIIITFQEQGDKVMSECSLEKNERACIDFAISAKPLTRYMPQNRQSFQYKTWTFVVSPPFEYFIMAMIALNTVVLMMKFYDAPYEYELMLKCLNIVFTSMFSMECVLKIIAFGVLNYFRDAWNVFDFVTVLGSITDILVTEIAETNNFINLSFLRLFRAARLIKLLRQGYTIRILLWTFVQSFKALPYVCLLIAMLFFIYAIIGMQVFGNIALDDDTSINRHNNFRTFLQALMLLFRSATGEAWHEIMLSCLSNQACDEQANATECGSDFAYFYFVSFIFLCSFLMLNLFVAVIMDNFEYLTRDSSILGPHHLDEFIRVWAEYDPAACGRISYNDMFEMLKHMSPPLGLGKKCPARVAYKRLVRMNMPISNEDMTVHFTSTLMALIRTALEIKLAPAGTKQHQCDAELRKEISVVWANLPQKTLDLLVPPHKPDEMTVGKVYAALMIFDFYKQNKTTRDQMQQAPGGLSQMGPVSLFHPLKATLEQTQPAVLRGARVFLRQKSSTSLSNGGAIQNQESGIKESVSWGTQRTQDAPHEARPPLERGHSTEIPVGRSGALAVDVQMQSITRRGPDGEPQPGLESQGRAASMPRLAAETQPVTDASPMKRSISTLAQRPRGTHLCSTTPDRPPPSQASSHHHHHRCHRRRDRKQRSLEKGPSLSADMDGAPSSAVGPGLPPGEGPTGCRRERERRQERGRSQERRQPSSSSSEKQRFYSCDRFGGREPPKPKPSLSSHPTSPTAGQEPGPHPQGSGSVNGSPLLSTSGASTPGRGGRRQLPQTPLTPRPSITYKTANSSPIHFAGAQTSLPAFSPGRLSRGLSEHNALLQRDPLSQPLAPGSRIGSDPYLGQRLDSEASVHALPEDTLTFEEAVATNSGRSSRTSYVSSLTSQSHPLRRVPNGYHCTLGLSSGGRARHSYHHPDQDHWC
T1 sequence (P54284 whole entry partner): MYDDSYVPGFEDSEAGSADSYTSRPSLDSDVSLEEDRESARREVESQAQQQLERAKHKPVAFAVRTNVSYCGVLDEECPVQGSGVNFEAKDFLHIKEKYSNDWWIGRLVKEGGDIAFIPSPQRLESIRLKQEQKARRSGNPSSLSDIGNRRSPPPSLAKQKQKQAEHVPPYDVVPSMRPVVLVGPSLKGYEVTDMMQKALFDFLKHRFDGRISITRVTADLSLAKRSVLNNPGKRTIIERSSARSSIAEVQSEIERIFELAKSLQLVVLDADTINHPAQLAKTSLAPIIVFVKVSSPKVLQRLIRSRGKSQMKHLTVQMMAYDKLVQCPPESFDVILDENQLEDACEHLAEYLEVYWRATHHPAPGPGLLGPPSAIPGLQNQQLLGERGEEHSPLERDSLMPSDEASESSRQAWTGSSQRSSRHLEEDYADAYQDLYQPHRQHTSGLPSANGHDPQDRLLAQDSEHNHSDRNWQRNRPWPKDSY
T1 sequence (P54289 25-946 partner limits assumed): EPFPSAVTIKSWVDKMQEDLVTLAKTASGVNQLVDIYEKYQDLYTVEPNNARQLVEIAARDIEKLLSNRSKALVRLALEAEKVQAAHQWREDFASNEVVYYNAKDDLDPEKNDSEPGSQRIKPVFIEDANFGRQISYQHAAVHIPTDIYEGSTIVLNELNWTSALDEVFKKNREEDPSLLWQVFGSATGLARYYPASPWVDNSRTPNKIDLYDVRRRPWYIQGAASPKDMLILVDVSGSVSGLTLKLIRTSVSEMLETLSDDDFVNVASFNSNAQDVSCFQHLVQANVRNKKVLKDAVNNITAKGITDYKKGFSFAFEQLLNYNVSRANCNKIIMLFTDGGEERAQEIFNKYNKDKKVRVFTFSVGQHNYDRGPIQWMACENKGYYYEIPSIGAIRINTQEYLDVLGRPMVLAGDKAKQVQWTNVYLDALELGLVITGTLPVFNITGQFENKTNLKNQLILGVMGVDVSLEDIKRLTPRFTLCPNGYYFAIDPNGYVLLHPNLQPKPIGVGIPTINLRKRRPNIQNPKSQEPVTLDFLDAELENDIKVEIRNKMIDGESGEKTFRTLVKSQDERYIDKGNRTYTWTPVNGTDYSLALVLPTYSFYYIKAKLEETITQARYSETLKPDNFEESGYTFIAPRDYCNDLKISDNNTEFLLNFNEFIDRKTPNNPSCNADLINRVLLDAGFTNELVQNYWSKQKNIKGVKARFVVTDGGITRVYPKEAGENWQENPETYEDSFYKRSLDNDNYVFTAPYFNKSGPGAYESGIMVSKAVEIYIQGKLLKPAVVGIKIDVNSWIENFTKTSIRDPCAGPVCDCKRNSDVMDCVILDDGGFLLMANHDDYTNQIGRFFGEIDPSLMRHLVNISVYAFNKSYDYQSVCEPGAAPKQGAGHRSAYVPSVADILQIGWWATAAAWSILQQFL
T1 sequence (P54289 947-1103 partner limits assumed): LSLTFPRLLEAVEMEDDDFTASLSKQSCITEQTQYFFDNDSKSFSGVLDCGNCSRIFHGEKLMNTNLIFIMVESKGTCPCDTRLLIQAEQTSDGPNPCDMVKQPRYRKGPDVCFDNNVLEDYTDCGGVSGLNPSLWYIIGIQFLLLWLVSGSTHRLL

| pIC50 (N-type Ca^2+ Channel) | SMILES | DBA/2 mice % Protection dose @ 30 mg/kg (DBA/2 mice) [%] |
| --- | --- | --- |
| 6.49 | CC(C)=CCNC(CC(C)C)C(=O)NC(Cc1ccc(OCc2ccccc2)cc1)C(=O)OC(C)(C)C (stereo not drawn) [Example 31, [S-(R*,R*)]-3-(4-Benzyloxy-phenyl)-2-[4-methyl-2-(3-methyl-but-2-enylamino)-pentanoylamino]-propionic acid tert-butyl ester] | 100 |
| 6.55 | CC(C)CC(C(=O)NC(Cc1ccc(OCc2ccccc2)cc1)C(=O)NC(C)(C)C)N(C)C1C=CCCC1 (stereo not drawn) [Example 47, [S-(R*,R*)]-2-(Cyclohex-2-enyl-methyl-amino)-4-methyl-pentanoic acid [2-(4-benzyloxy-phenyl)-1-tert-butylcarbamoyl-ethyl]-amide] | 100 |
| 6.10 | CC(C)CC(NC(C)C)C(=O)NC(Cc1ccc(OCc2ccccc2)cc1)C(=O)OC(C)(C)C (stereo not drawn) [Example 92, [S-(R*,R*)]-3-(4-Benzyloxy-phenyl)-2-(2-isopropylamino4-methyl-pentanoylamino)-propionic acid tert-butyl ester] | 100 |
